Columns and labels:
NSC populations = test: Clonal expansion of NSC on NIH 3T3 transfectant feeder layer; format: cell-based
[1] = test system: PAR1 null cells adenovirally-transduced with the FGF1R136K mutant; test: Immunoblot analysis of FGF1 release in PAR1 null cells; format: cell-based, mouse; conditions: 10 μg/ml α-thrombin
[2] = test system: Swiss 3T3 cells expressing a dominant-negative FGFR1 mutant; test: DNA synthesis assay, (3H)-thymidine autoradiography; format: cell-based, murine; conditions: 10 μg/ml α-thrombin
Experimental: A combination of (^3H)-thymidine autoradiography and immunohistochemistry was used to evaluate the levels of DNA synthesis in Swiss 3T3 cells expressing a dominant-negative FGFR1 mutant. Swiss 3T3 cells were plated at 50% confluency on glass coverslips precoated with fibronectin (10 μg/cm^2) for 24 hours. The cells were transfected with the pCS2 vector expressing a dominant-negative X. laevis FGFR1 deletion mutant lacking the FGFR1 intracellular domain (a gift from Dr. R. Friesel) using the Fugene 6 reagent (Roche). After 24 hours, the medium was changed to DMEM containing 0.25% BCS and following a 48 hour incubation in low BCS, the cells were stimulated with either 10 μg/ml of α-thrombin, 10% BCS or 10 ng/ml of recombinant FGF1 plus 10 units/ml of heparin. After stimulation for 24 hours, (^3H)-thymidine (NEN; 1 μCi/ml) was added to the medium and cells were incubated for 12 hours and fixed with 4% neutral formaldehyde. […] The percentage of (^3H)-labeled nuclei among the dnFGFR1-positive and dnFGFR1-negative cells was quantitated using an inverted Olympus microscope.
Thus, a dominant-negative (dn) FGFR1 construct was expressed in Swiss 3T3 cells and their proliferative index measured in the presence and absence of exogenous thrombin.

[3] = test system: secondary NCSC populations; test: Dosage sensitivity of secondary NCSC to instructive differentiation factors BMP2 and sDl1; format: cell-based; conditions: clones expanded 18 days; 5 μM TRAP, sJ1 or thrombin
Experimental: Secondary NCSC population were generated from founder NCSC clones after 13 days of growth in Morrison media supplemented either with 7.5 nM sJ1 (▴-▴), 5 μg/ml α-thrombin (▾-▾), 5 μM TRAP (♦-♦) or no additive (control; ▪-▪) and compared to freshly isolated populations of NCSC (●-●). […] Clonogenic differentiation assays of secondary P75^+/P0^− NCSC populations were assayed in Morrison media as a function of the concentration of the neurogenic differentiation factor, BMP2, and the generation of Neuron-only clones was assessed 14 days after the addition of BMP2. […] Clonogenic differentiation assays of secondary P75^+/P0^− NCSC were preformed in Morrison media supplemented with increasing concentrations of the gliogenic differentiation factor, sDl1 and the generation of Glial-only clones was assessed 14 days after the addition of sDl1. […]
It is well established that quantitative changes in the dosage sensitivity of NCSC populations occur in vitro and in vivo during NCSC self-renewal (Kubu et al., 2002, Dev. Biol. 244:199-214; White et al., 1999, Development 126:4351-4363; White et al., 2001, Neuron 29:57-71). […] The dosage sensitivity of secondary NCSC populations to both BMP2 and sDl1 was evaluated using the clonogenic differentiation assay to quantitate the production of neuron-only clones (BMP2) and glial-only clones (sDl1) after day 18.

primary NCSC populations = test: Clonogenic differentiation of primary NCSC, dosage sensitivity to Notch ligands; format: cell-based, rat; conditions: two week differentiation assay
Experimental: FIG. 12A depicts an RT-PCR analysis of FGF1.A mRNA expression. Briefly, populations of murine NCSC were treated for 48 hours in Morrison media supplemented with either 7.5 nM sJ1, 5.0 nM sDl1, 10 μg/ml of α-thrombin or 5 μg/ml TRAP, and the steady-state levels of the FGF1.A mRNA were measured using RT-PCR as described elsewhere herein. […] Clonogenic differentiation assays of murine NCSC populations were assessed by maintaining the cells in Morrison media supplemented with increasing concentrations of either sJ1 or sDl1. The results are presented as the number of colonies at day 14 (mean±standard deviation for at least three experiments) originating from three independent cell isolations as function of concentration of sJ1 and sDl1 using two assays of ligand sensitivity: the percentage of glial-only clones (▪-▪; ▴-▴) and the percentage of neuron-containing clones (♦-♦; ▾-▾) produced after 14 days of ligand exposure. Legend: (▴-▴)sJ1/Glial, (▾-▾) sDl1/Glial (♦-♦) sJ1/Neural and (▾-▾) sJDl1/Neural. […] Clonogenic differentiation assays of NCSC populations was assessed by maintaining the cells in Morrison media supplemented with either 7.5 nM sJ1 (▪-▪) or 5 nM sDl1 (▴-▴). The onset of gliogenic differentiation was determined by GFAP immunohistochemistry. Results are presented as the percentage of GFAP-positive clones (mean±standard deviation of three experiments). […]

In the case of Thrombin, the “effect on size of NSC colonies” value (NSC populations; full-length Delta1 NIH 3T3 cell transfectant feeder layer) is reported as “failed to induce”, the “effect on size of NSC colonies” value (NSC populations; full-length Jagged1 NIH 3T3 cell transfectant feeder layer, 5 μg/ml thrombin) is reported as “exaggeration of the size of the NSC colonies” and the “export of the FGF1R136K mutant” value [1] is reported as “unable to induce the export”. For the same substance, the “DNA synthesis frequency with dnFGFR1 expression” value [2] was “level consistent with a quiescent cellular phenotype” and the “shift in sensitivity to instructive differentiation signals” value [3] was “not observed”.
For “sJ1: Soluble Jagged1, amino acid residues from about 1 to 1067 (SEQ ID NO:3) of full-length Jagged1”, the “gliogenic differentiation of the NCSC population” value (primary NCSC populations) was “capable of inducing gliogenic differentiation” and the “shift in sensitivity to instructive differentiation signals” value [3] was “not observed”.
